Reference: patent publication US11725036B2, “Modified lipidated relaxin B chain peptides and their therapeutic use” (Sanofi, priority 2018, dated 2023)
≈ marks a conversion by molar mass, not a printed value. Read-outs that look alike come from different tables or passages of the source. Starred links: 1 amine or outer side, 2 acyl side, 3 side chain; linkers in the order of their positions; H or OH if unused. Non-standard residues stand in square brackets, D forms with d. Residues, ends and D or L forms follow the SMILES beside them. Groups on a side chain read outwards from the residue. *: point of attachment. X1 = CCCCCCCCCCCCCCCC(=O)N[C@@H](CCC(=O)N[C@@H](CCC(=O)N[C@@H](CCC(=O)NCCCOCCOCCOCCCNC(=O)CCC(=O)NCCCOCCOCCOCCCNC(=O)CCC(=O)NCCCOCCOCCOCCCN*)C(=O)O)C(=O)O)C(=O)O; X2 = CCCCCCCCCCCCCCCC(=O)N[C@@H](CCC(=O)N[C@@H](CCC(=O)N[C@@H](CCC(=O)NCCCOCCOCCOCCCNC(=O)CCC(=O)NCCCOCCOCCOCCCN*)C(=O)O)C(=O)O)C(=O)O; γGlu = O=C(O)[C@H](CCC(=O)[*:2])N[*:1]; Stearoyl = CCCCCCCCCCCCCCCCCC(=O)*; Suc = O=C(CCC(=O)[*:2])[*:1]; αMeK = C[C@](N)(CCCCN)C(=O)O; AEEA = NCCOCCOCC(=O)O; Aib = CC(C)(N)C(=O)O

Assays:
RXFP1 = target: T1, RXFP1 (Homo sapiens, UniProt Q9HBX9); test: OVCAR5 cAMP assay (HTRF); format: cell-based; conditions: for EC50: OVCAR 5 cells expressing endogenous RXFP1, cAMP readout; for Emax: OVCAR 5 cells, maximal cAMP relative to H2-relaxin
T1 construct: OVCAR5 cells expressing endogenous RXFP1; endogenous in cells; host or cells: OVCAR5
T1 sequence (Q9HBX9 1-757): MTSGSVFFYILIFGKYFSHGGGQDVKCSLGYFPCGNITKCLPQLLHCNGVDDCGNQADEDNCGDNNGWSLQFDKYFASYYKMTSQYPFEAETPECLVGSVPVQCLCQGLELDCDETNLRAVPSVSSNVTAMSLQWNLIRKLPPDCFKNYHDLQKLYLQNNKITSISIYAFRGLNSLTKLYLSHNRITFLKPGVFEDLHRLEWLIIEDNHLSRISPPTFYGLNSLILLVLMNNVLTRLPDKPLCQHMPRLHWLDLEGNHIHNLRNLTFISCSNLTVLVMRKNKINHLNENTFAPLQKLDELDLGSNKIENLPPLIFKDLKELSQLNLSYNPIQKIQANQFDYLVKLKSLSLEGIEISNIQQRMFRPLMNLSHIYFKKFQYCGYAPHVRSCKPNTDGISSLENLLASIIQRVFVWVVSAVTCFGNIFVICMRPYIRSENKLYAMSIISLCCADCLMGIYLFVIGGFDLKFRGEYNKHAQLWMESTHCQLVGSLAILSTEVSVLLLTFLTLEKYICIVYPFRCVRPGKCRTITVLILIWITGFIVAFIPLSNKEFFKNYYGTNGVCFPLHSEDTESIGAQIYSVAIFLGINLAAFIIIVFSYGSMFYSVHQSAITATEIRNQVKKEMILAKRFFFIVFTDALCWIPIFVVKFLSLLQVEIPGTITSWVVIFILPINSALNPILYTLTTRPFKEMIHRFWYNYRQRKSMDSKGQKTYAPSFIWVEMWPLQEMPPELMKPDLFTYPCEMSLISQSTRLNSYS
Procedure, shortened: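 Peptide agonism measured as intracellular cAMP (HTRF) after 30 min at 37° C in serum-free medium, following 40 min 1 mM IBMX preincubation of OVCAR5 cells. Nonlinear regression gave EC50; Emax % = 100 × compound maximal cAMP / H2-relaxin maximal cAMP.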

[1] = Solubility testing in buffer; format: physicochemical; conditions: target solubility 10.0 mg/ml
Protocol: Prior to the testing of solubility of a peptide batch, its purity (HPLC-UV) was determined.
Acetate Buffer 50 mM pH4.5: 0.75 g C2H3C02Na,3H2O (Sigma S7545)+0.35 ml CH3CO2H 100% solution dissolved in Millipore water, adjusted to pH with diluted (1:1) CH3CO2H and diluted to 250 ml with Millipore water.
In a 4 ml Ependorph vial, an accurately weighed sample of compound was diluted in study media to obtain target concentration of 2, 6 or 10 mg/ml of pure compound. The sample vials were shacked (rock 'roll shaker) for ˜19 h. 300 μL aliquots were filtered through a Millipore “Solvinert” plate (0.45 μm-PTFE hydrophilic).
pH was measured with a micro electrode
Waters Acquity UPLC System with DAD detector
Column: Waters Peptide Column CSH C18 (130 Å; 1.7 μm; 50*2.1 mm)
Column temperature: 60° C.
Full loop (about 5 μL)—overfill factor 5
Weak et Strong wash: H2O/ACN (75/25; V/V); Seal wash: H2O/IsOH (95/5; V/V). Mobile phase:
Solvent A: 0.05% TFA in H2O; Solvent B: 0.035% TFA in CH3CN
Gradient: from 0 to 12 min B=2% to 60%, from 12 to 14 min B=60% to 100%. Column washing 100% B 1 min, column equilibration 2% B 2.5 min.
UV detector: wavelength: 220 nm.

[2] = acetate buffer 50 mM pH 4.5, read-out: Solubility Acetate buffer pH 4.5
[3] = phosphate buffer 50 mM pH 7.4, read-out: Solubility phosphate buffer pH 7.4

Compound	EC50 (RXFP1) [nM]	Emax (RXFP1) [%]	solubility [1, 2] [µg/mL]	solubility [1, 3] [µg/mL]
CCCCCCCCCCCCCCCC(=O)N[C@@H](CCC(=O)N[C@@H](CCC(=O)N[C@@H](CCC(=O)NCCCOCCOCCOCCCNC(=O)CCC(=O)NCCCOCCOCCOCCCNC(=O)CCC(=O)NCCCC[C@H](NC(=O)CNC(=O)[C@H](CCC(=O)O)NC(=O)C(C)(C)NC(=O)C(C)(C)NC(=O)[C@@H](NC(=O)[C@H](CCCCNC(C)=O)NC(=O)[C@H](C)NC(=O)[C@H](CCCNC(=N)N)NC(=O)[C@@H](NC(=O)[C@H](CCCCN)NC(=O)[C@H](CCC(=O)O)NC(=O)[C@H](CCCNC(=N)N)NC(=O)CNC(=O)[C@H](CCC(=O)O)NC(=O)[C@H](CC(C)C)NC(C)=O)C(C)C)[C@@H](C)CC)C(=O)N[C@@H](CO)C(=O)N[C@H](C(=O)N[C@@H](Cc1c[nH]c2ccccc12)C(=O)N[C@@H](CO)C(=O)N[C@H](CCCCN)C(=O)N[C@@H](CCCNC(=N)N)C(=O)N[C@@H](CCCCN)C(=O)N[C@@H](CCCCNC(C)=O)C(N)=O)[C@@H](C)O)C(=O)O)C(=O)O)C(=O)O [compound 18] (Ac-LEGREKVRAK(Ac)I[Aib][Aib]EGK([Suc-X2])STWS[dK]RKK(Ac)-NH2)	1.54	92	6750 (≈ 1630 µM)	6580 (≈ 1590 µM)
CCCCCCCCCCCCCCCCCC(=O)N[C@@H](CCC(=O)N[C@@H](CCC(=O)N[C@@H](CCC(=O)NCCOCCOCC(=O)NCCOCCOCC(=O)NCCOCCOCC(=O)NCCOCCOCC(=O)NCCCC[C@H](NC(=O)CNC(=O)[C@H](CCC(=O)O)NC(=O)C(C)(C)NC(=O)C(C)(C)NC(=O)[C@@H](NC(=O)[C@H](CCCCNC(C)=O)NC(=O)[C@H](C)NC(=O)[C@H](CCCNC(=N)N)NC(=O)[C@@H](NC(=O)[C@H](CCCCN)NC(=O)[C@H](CCC(=O)O)NC(=O)[C@H](CCCNC(=N)N)NC(=O)CNC(=O)[C@H](CCC(=O)O)NC(=O)[C@H](CC(C)C)NC(C)=O)C(C)C)[C@@H](C)CC)C(=O)N[C@@H](CO)C(=O)N[C@H](C(=O)N[C@@H](Cc1c[nH]c2ccccc12)C(=O)N[C@@H](CO)C(=O)NC(C)(C)C(=O)N[C@@H](CCCNC(=N)N)C(=O)N[C@@H](CCCCN)C(=O)N[C@@H](CCCCNC(C)=O)C(N)=O)[C@@H](C)O)C(=O)O)C(=O)O)C(=O)O [compound 21] (Ac-LEGREKVRAK(Ac)I[Aib][Aib]EGK([AEEA-AEEA-AEEA-AEEA-γGlu-γGlu-γGlu-Stearoyl])STWS[Aib]RKK(Ac)-NH2)	0.65	93	6280 (≈ 1530 µM)	6590 (≈ 1610 µM)
CCCCCCCCCCCCCCCC(=O)N[C@@H](CCC(=O)N[C@@H](CCC(=O)N[C@@H](CCC(=O)NCCCOCCOCCOCCCNC(=O)CCC(=O)NCCCOCCOCCOCCCNC(=O)CCC(=O)NCCCOCCOCCOCCCNC(=O)CCC(=O)NCCCC[C@H](NC(=O)CNC(=O)[C@H](CCC(=O)O)NC(=O)C(C)(C)NC(=O)C(C)(C)NC(=O)[C@@H](NC(=O)[C@H](CCCCNC(C)=O)NC(=O)[C@H](C)NC(=O)[C@H](CCCNC(=N)N)NC(=O)[C@@H](NC(=O)[C@H](CC(C)C)NC(=O)[C@H](CCC(=O)O)NC(=O)[C@H](CCCNC(=N)N)NC(=O)CNC(=O)[C@H](CCC(=O)O)NC(=O)[C@H](CC(C)C)NC(C)=O)C(C)C)[C@@H](C)CC)C(=O)N[C@@H](CO)C(=O)N[C@H](C(=O)N[C@@H](Cc1ccccc1)C(=O)N[C@@H](CO)C(=O)N[C@@](C)(CCCCN)C(=O)N[C@@H](CCCNC(=N)N)C(=O)N[C@@H](C)C(=O)N[C@@H](CCCCNC(C)=O)C(N)=O)[C@@H](C)O)C(=O)O)C(=O)O)C(=O)O [compound 23] (Ac-LEGRELVRAK(Ac)I[Aib][Aib]EGK([Suc-X1])STFS[αMeK]RAK(Ac)-NH2)	11.1	92	550 (≈ 127 µM)	6770 (≈ 1560 µM)

Results, then the molecule that gave them:

EC50 (RXFP1) [nM]	Emax (RXFP1) [%]	solubility [1, 2] [µg/mL]	solubility [1, 3] [µg/mL]	Compound
36.4	100	280 (≈ 63.9 µM)	6930 (≈ 1580 µM)	CCCCCCCCCCCCCCCC(=O)N[C@@H](CCC(=O)N[C@@H](CCC(=O)N[C@@H](CCC(=O)NCCCOCCOCCOCCCNC(=O)CCC(=O)NCCCOCCOCCOCCCNC(=O)CCC(=O)NCCCOCCOCCOCCCNC(=O)CCC(=O)NCCCC[C@H](NC(=O)CNC(=O)[C@H](CCC(=O)O)NC(=O)C(C)(C)NC(=O)C(C)(C)NC(=O)[C@@H](NC(=O)[C@H](CCCCNC(C)=O)NC(=O)[C@H](C)NC(=O)[C@H](CCCNC(=N)N)NC(=O)[C@@H](NC(=O)[C@H](Cc1ccccc1)NC(=O)[C@H](CCC(=O)O)NC(=O)[C@H](CCCNC(=N)N)NC(=O)CNC(=O)[C@H](CCC(=O)O)NC(=O)[C@H](CC(C)C)NC(C)=O)C(C)C)[C@@H](C)CC)C(=O)N[C@@H](CO)C(=O)N[C@H](C(=O)N[C@@H](Cc1ccccc1)C(=O)N[C@@H](CO)C(=O)N[C@@](C)(CCCCN)C(=O)N[C@@H](CCCNC(=N)N)C(=O)N[C@@H](C)C(=O)N[C@@H](CCCCNC(C)=O)C(N)=O)[C@@H](C)O)C(=O)O)C(=O)O)C(=O)O [compound 24] (Ac-LEGREFVRAK(Ac)I[Aib][Aib]EGK([Suc-X1])STFS[αMeK]RAK(Ac)-NH2)
28.7	100	6580 (≈ 1510 µM)	6750 (≈ 1550 µM)	CCCCCCCCCCCCCCCC(=O)N[C@@H](CCC(=O)N[C@@H](CCC(=O)N[C@@H](CCC(=O)NCCCOCCOCCOCCCNC(=O)CCC(=O)NCCCOCCOCCOCCCNC(=O)CCC(=O)NCCCOCCOCCOCCCNC(=O)CCC(=O)NCCCC[C@H](NC(=O)CNC(=O)[C@H](CCC(=O)O)NC(=O)C(C)(C)NC(=O)C(C)(C)NC(=O)[C@@H](NC(=O)[C@H](CCCCNC(C)=O)NC(=O)[C@H](C)NC(=O)[C@H](CCCNC(=N)N)NC(=O)[C@@H](NC(=O)[C@H](CCC(N)=O)NC(=O)[C@H](CCC(=O)O)NC(=O)[C@H](CCCNC(=N)N)NC(=O)CNC(=O)[C@H](CCC(=O)O)NC(=O)[C@H](CC(C)C)NC(C)=O)C(C)C)[C@@H](C)CC)C(=O)N[C@@H](CO)C(=O)N[C@H](C(=O)N[C@@H](Cc1ccccc1)C(=O)N[C@@H](CO)C(=O)N[C@@](C)(CCCCN)C(=O)N[C@@H](CCCNC(=N)N)C(=O)N[C@@H](C)C(=O)N[C@@H](CCCCNC(C)=O)C(N)=O)[C@@H](C)O)C(=O)O)C(=O)O)C(=O)O [compound 25] (Ac-LEGREQVRAK(Ac)I[Aib][Aib]EGK([Suc-X1])STFS[αMeK]RAK(Ac)-NH2)
0.43	96	6680 (≈ 1640 µM)	6760 (≈ 1660 µM)	CCCCCCCCCCCCCCCCCC(=O)N[C@@H](CCC(=O)N[C@@H](CCC(=O)N[C@@H](CCC(=O)NCCOCCOCC(=O)NCCOCCOCC(=O)NCCOCCOCC(=O)NCCOCCOCC(=O)NCCCC[C@H](NC(=O)CNC(=O)[C@H](CCC(=O)O)NC(=O)C(C)(C)NC(=O)C(C)(C)NC(=O)[C@@H](NC(=O)[C@H](CCCCNC(C)=O)NC(=O)[C@H](C)NC(=O)[C@H](CCCNC(=N)N)NC(=O)[C@@H](NC(=O)[C@H](CCCCN)NC(=O)[C@H](CCC(=O)O)NC(=O)[C@H](CCCNC(=N)N)NC(=O)CNC(=O)[C@H](CCC(=O)O)NC(=O)[C@H](CC(C)C)NC(C)=O)C(C)C)[C@@H](C)CC)C(=O)N[C@@H](CO)C(=O)N[C@H](C(=O)N[C@@H](Cc1ccccc1)C(=O)N[C@@H](CO)C(=O)N[C@@](C)(CCCCN)C(=O)N[C@@H](CCCNC(=N)N)C(=O)N[C@@H](C)C(=O)N[C@@H](CCCCNC(C)=O)C(N)=O)[C@@H](C)O)C(=O)O)C(=O)O)C(=O)O [compound 26] (Ac-LEGREKVRAK(Ac)I[Aib][Aib]EGK([AEEA-AEEA-AEEA-AEEA-γGlu-γGlu-γGlu-Stearoyl])STFS[αMeK]RAK(Ac)-NH2)
